# Reference: patent US11078170B2 (Assembly Biosciences, Inc., priority 2017, dated 2021)
# System: HBV viral production from HepAD38 cells
# Test: Activity of test compounds on viral production from HepAD38 cells (viral load by qPCR of HBV core sequence in supernatant)
# Type: cell-based
# Conditions: Hepatitis B virus, 120 h, 5 days incubation, HBV DNA in supernatant by qPCR, top concentration 10 μM, read-out: Viral Load EC50 Activity range
# Summary of the method: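 HepAD38 cells, 50,000/well in tetracycline-free 2% FBS medium, treated 5 days at 37° C. with compound from 10 μM top concentration. HBV DNA in supernatant quantified by TaqMan qPCR of core sequence against DNA standards, relative to DMSO wells; CellTiter-Glo viability read in parallel. EC50/CC50 from four-parameter logistic fit.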
row,Compound,EC50 [nM]
1,"Cc1nn(C)cc1-c1ccc([C@@H]2C[C@H](C(=O)Nc3ccc(F)c(Cl)c3)N(C)S(=O)(=O)N2)s1 [HBV-CSU-313-ISO-II, Cis-N-(3-chloro-4-fluorophenyl)-5-(5-(1,3-dimethyl-1H-pyrazol-4-yl)thiophen-2-yl)-2-methyl-1,2,6-thiadiazinane-3-carboxamide 1,1-dioxide]",1000 to 5000
2,"Cc1nn(C)c(C)c1-c1ccc([C@H]2C[C@@H](C(=O)Nc3ccc(F)c(Cl)c3)N(C)S(=O)(=O)N2)s1 [HBV-CSU-314-ISO-I, Cis-N-(3-chloro-4-fluorophenyl)-2-methyl-5-(5-(1,3,5-trimethyl-1H-pyrazol-4-yl)thiophen-2-yl)-1,2,6-thiadiazinane-3-carboxamide 1,1-dioxide]",< 1000
3,"Cc1nn(C)c(C)c1-c1ccc([C@@H]2C[C@H](C(=O)Nc3ccc(F)c(Cl)c3)N(C)S(=O)(=O)N2)s1 [HBV-CSU-314-ISO-II, Cis-N-(3-chloro-4-fluorophenyl)-2-methyl-5-(5-(1,3,5-trimethyl-1H-pyrazol-4-yl)thiophen-2-yl)-1,2,6-thiadiazinane-3-carboxamide 1,1-dioxide]",1000 to 5000
4,"Cc1c(-c2csc(C3CC(C(=O)Nc4ccc(F)c(Cl)c4)N(C)S(=O)(=O)N3)c2)cnn1C (stereo not drawn) [HBV-CSU-315, Cis-N-(3-chloro-4-fluorophenyl)-5-(4-(1,5-dimethyl-1H-pyrazol-4-yl)thiophen-2-yl)-2-methyl-1,2,6-thiadiazinane-3-carboxamide 1,1-dioxide]",< 1000
5,"Cc1c(-c2csc([C@H]3C[C@@H](C(=O)Nc4ccc(F)c(Cl)c4)N(C)S(=O)(=O)N3)c2)cnn1C [HBV-CSU-315-ISO-I, Cis-N-(3-chloro-4-fluorophenyl)-5-(4-(1,5-dimethyl-1H-pyrazol-4-yl)thiophen-2-yl)-2-methyl-1,2,6-thiadiazinane-3-carboxamide 1,1-dioxide]",< 1000
6,"Cc1nn(C)cc1-c1csc([C@H]2C[C@@H](C(=O)Nc3ccc(F)c(Cl)c3)N(C)S(=O)(=O)N2)c1 [HBV-CSU-316-ISO-I, Cis-N-(3-chloro-4-fluorophenyl)-5-(4-(1,3-dimethyl-1H-pyrazol-4-yl)thiophen-2-yl)-2-methyl-1,2,6-thiadiazinane-3-carboxamide 1,1-dioxide]",< 1000
7,"Cc1nn(C)c(C)c1-c1csc([C@H]2C[C@@H](C(=O)Nc3ccc(F)c(Cl)c3)N(C)S(=O)(=O)N2)c1 [HBV-CSU-317-ISO-I, Cis-N-(3-chloro-4-fluorophenyl)-2-methyl-5-(4-(1,3,5-trimethyl-1H-pyrazol-4-yl)thiophen-2-yl)-1,2,6-thiadiazinane-3-carboxamide 1,1-dioxide]",< 1000
8,"CN1[C@H](C(=O)Nc2ccc(F)c(Cl)c2)C[C@H](c2ccc(-c3cnn(C(F)(F)F)c3)s2)NS1(=O)=O [HBV-CSU-321-ISO-I, Cis-N-(3-Chloro-4-fluorophenyl)-2-methyl-5-(5-(1-(trifluoromethyl)-1H-pyrazol-4-yl)thiophen-2-yl)-1,2,6-thiadiazinane-3-carboxamide 1,1-dioxide]",< 1000
9,"CN1[C@@H](C(=O)Nc2ccc(F)c(Cl)c2)C[C@@H](c2ccc(-c3cnn(C(F)(F)F)c3)s2)NS1(=O)=O [HBV-CSU-321-ISO-II, Cis-N-(3-Chloro-4-fluorophenyl)-2-methyl-5-(5-(1-(trifluoromethyl)-1H-pyrazol-4-yl)thiophen-2-yl)-1,2,6-thiadiazinane-3-carboxamide 1,1-dioxide]",> 5000
10,CN1C(C(=O)Nc2ccc(F)c(Cl)c2)CC(c2ccc(-c3cnn(C(F)(F)F)c3)s2)NS1(=O)=O (stereo not drawn) [HBV-CSU-321],< 1000
11,"CN1[C@H](C(=O)Nc2ccc(F)c(Cl)c2)C[C@H](c2ccc(-c3ncn(C)n3)s2)NS1(=O)=O [HBV-CSU-322-ISO-I, Cis-N-(3-Chloro-4-fluorophenyl)-2-methyl-5-(5-(1-methyl-1H-1,2,4-triazol-3-yl)thiophen-2-yl)-1,2,6-thiadiazinane-3-carboxamide 1,1-dioxide]",< 1000
12,"CN1[C@@H](C(=O)Nc2ccc(F)c(Cl)c2)C[C@@H](c2ccc(-c3ncn(C)n3)s2)NS1(=O)=O [HBV-CSU-322-ISO-II, Cis-N-(3-Chloro-4-fluorophenyl)-2-methyl-5-(5-(1-methyl-1H-1,2,4-triazol-3-yl)thiophen-2-yl)-1,2,6-thiadiazinane-3-carboxamide 1,1-dioxide]",> 5000
13,"CN1[C@H](C(=O)Nc2ccc(F)c(Cl)c2)C[C@H](c2ccc(-c3ncnn3C)s2)NS1(=O)=O [HBV-CSU-323-ISO-I, Cis-N-(3-Chloro-4-fluorophenyl)-2-methyl-5-(5-(1-methyl-1H-1,2,4-triazol-5-yl)thiophen-2-yl)-1,2,6-thiadiazinane-3-carboxamide 1,1-dioxide]",< 1000
14,"CN1[C@@H](C(=O)Nc2ccc(F)c(Cl)c2)C[C@@H](c2ccc(-c3ncnn3C)s2)NS1(=O)=O [HBV-CSU-323-ISO-II, Cis-N-(3-Chloro-4-fluorophenyl)-2-methyl-5-(5-(1-methyl-1H-1,2,4-triazol-5-yl)thiophen-2-yl)-1,2,6-thiadiazinane-3-carboxamide 1,1-dioxide]",1000 to 5000
15,"CN1[C@H](C(=O)Nc2ccc(F)c(Cl)c2)C[C@H](c2ccc(-c3nncn3C)s2)NS1(=O)=O [HBV-CSU-324-ISO-I, Cis-N-(3-Chloro-4-fluorophenyl)-2-methyl-5-(5-(4-methyl-4H-1,2,4-triazol-3-yl)thiophen-2-yl)-1,2,6-thiadiazinane-3-carboxamide 1,1-dioxide]",< 1000
16,"CN1[C@@H](C(=O)Nc2ccc(F)c(Cl)c2)C[C@@H](c2ccc(-c3nncn3C)s2)NS1(=O)=O [HBV-CSU-324-ISO-II, Cis-N-(3-Chloro-4-fluorophenyl)-2-methyl-5-(5-(4-methyl-4H-1,2,4-triazol-3-yl)thiophen-2-yl)-1,2,6-thiadiazinane-3-carboxamide 1,1-dioxide]",1000 to 5000
17,"CN1[C@H](C(=O)Nc2ccc(F)c(Cl)c2)C[C@H](c2cc(-c3cnn(C(F)(F)F)c3)cs2)NS1(=O)=O [HBV-CSU-325-ISO-I, Cis-N-(3-Chloro-4-fluorophenyl)-2-methyl-5-(4-(1-(trifluoromethyl)-1H-pyrazol-4-yl)thiophen-2-yl)-1,2,6-thiadiazinane-3-carboxamide 1,1-dioxide]",< 1000
18,"CN1[C@H](C(=O)Nc2ccc(F)c(Cl)c2)C[C@H](c2cc(-c3ncn(C)n3)cs2)NS1(=O)=O [HBV-CSU-326-ISO-I, Cis-N-(3-chloro-4-fluorophenyl)-2-methyl-5-(4-(1-methyl-1H-1,2,4-triazol-3-yl)thiophen-2-yl)-1,2,6-thiadiazinane-3-carboxamide 1,1-dioxide]",< 1000
19,"CN1[C@@H](C(=O)Nc2ccc(F)c(Cl)c2)C[C@@H](c2cc(-c3ncn(C)n3)cs2)NS1(=O)=O [HBV-CSU-326-ISO-II, Cis-N-(3-chloro-4-fluorophenyl)-2-methyl-5-(4-(1-methyl-1H-1,2,4-triazol-3-yl)thiophen-2-yl)-1,2,6-thiadiazinane-3-carboxamide 1,1-dioxide]",> 5000
20,"CN1[C@H](C(=O)Nc2ccc(F)c(Cl)c2)C[C@H](c2cc(-c3ncnn3C)cs2)NS1(=O)=O [HBV-CSU-327-ISO-I, Cis-N-(3-Chloro-4-fluorophenyl)-2-methyl-5-(4-(1-methyl-1H-1,2,4-triazol-5-yl)thiophen-2-yl)-1,2,6-thiadiazinane-3-carboxamide 1,1-dioxide]",< 1000
21,"CN1[C@@H](C(=O)Nc2ccc(F)c(Cl)c2)C[C@@H](c2cc(-c3ncnn3C)cs2)NS1(=O)=O [HBV-CSU-327-ISO-II, Cis-N-(3-Chloro-4-fluorophenyl)-2-methyl-5-(4-(1-methyl-1H-1,2,4-triazol-5-yl)thiophen-2-yl)-1,2,6-thiadiazinane-3-carboxamide 1,1-dioxide]",1000 to 5000
22,"CN1[C@H](C(=O)Nc2ccc(F)c(Cl)c2)C[C@H](c2cc(-c3nncn3C)cs2)NS1(=O)=O [HBV-CSU-328-ISO-I, Cis-N-(3-chloro-4-fluorophenyl)-2-methyl-5-(4-(4-methyl-4H-1,2,4-triazol-3-yl)thiophen-2-yl)-1,2,6-thiadiazinane-3-carboxamide 1,1-dioxide]",< 1000
23,"CN1[C@@H](C(=O)Nc2ccc(F)c(Cl)c2)C[C@@H](c2cc(-c3nncn3C)cs2)NS1(=O)=O [HBV-CSU-328-ISO-II, Cis-N-(3-chloro-4-fluorophenyl)-2-methyl-5-(4-(4-methyl-4H-1,2,4-triazol-3-yl)thiophen-2-yl)-1,2,6-thiadiazinane-3-carboxamide 1,1-dioxide]",> 5000
24,"CN1C(C(=O)Nc2ccc(F)c(Cl)c2)CC(c2cc(Cl)c(Br)s2)NS1(=O)=O (stereo not drawn) [HBV-CSU-329, Cis-5-(5-bromo-4-chlorothiophen-2-yl)-N-(3-chloro-4-fluorophenyl)-2-methyl-1,2,6-thiadiazinane-3-carboxamide 1,1-dioxide]",< 1000
25,"CN1C(C(=O)Nc2ccc(F)c(Cl)c2)CC(c2cc(Br)c(Cl)s2)NS1(=O)=O (stereo not drawn) [HBV-CSU-330, Cis-5-(4-bromo-5-chlorothiophen-2-yl)-N-(3-chloro-4-fluorophenyl)-2-methyl-1,2,6-thiadiazinane-3-carboxamide 1,1-dioxide]",< 1000
26,"CN1[C@H](C(=O)Nc2ccc(F)c(Cl)c2)C[C@H](c2ccc(-c3c[nH]cn3)s2)NS1(=O)=O [HBV-CSU-331-ISO-I, Cis-5-(5-(1H-imidazol-4-yl)thiophen-2-yl)-N-(3-chloro-4-fluorophenyl)-2-methyl-1,2,6-thiadiazinane-3-carboxamide 1,1-dioxide]",< 1000
27,"CN1[C@@H](C(=O)Nc2ccc(F)c(Cl)c2)C[C@@H](c2ccc(-c3c[nH]cn3)s2)NS1(=O)=O [HBV-CSU-331-ISO-II, Cis-5-(5-(1H-imidazol-4-yl)thiophen-2-yl)-N-(3-chloro-4-fluorophenyl)-2-methyl-1,2,6-thiadiazinane-3-carboxamide 1,1-dioxide]",1000 to 5000
